Measured values reported in ChEMBL document CHEMBL1145998, “Thermal denaturation: a method to rank slow binding, high-affinity P38alpha MAP kinase inhibitors” (J Med Chem, 2003).

Assays:
[1] = target: T1, Mitogen-activated protein kinase 14 (Homo sapiens, UniProt Q16539); experiment: Dissociation constant fit from ITC data against human Mitogen-activated protein kinase p38 alpha (constant fit)
[2] = target: T1, Mitogen-activated protein kinase 14; experiment: Dissociation constant at Tm against human Mitogen-activated protein kinase p38 alpha
[3] = target: T1, Mitogen-activated protein kinase 14; experiment: Dissociation constant at Tref against human Mitogen-activated protein kinase p38 alpha
[4] = target: T1, Mitogen-activated protein kinase 14; experiment: Dissociation constant at Tm against human Mitogen-activated protein kinase p38 alpha (fluorescence exchange curve)

T1 sequence (Q16539 whole entry): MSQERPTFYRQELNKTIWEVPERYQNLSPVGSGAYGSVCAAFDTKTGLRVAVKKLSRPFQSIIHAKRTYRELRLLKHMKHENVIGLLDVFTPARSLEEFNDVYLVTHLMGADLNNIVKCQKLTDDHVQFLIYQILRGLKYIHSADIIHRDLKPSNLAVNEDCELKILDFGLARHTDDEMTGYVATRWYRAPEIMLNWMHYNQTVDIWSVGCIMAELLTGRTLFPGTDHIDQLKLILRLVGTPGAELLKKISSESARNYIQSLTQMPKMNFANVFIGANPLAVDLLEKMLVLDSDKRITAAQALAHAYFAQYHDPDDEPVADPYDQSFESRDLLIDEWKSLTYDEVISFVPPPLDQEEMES

Structure (SMILES) | Kd [1] [nM] | Kd [2] [nM] | Kd [3] [nM] | Kd [4] [nM]
Cn1nc(C(C)(C)C)cc1NC(=O)Nc1ccc(OCCN2CCOCC2)c2ccccc12 | 10 | 210 | 25.7 | 
CC(C)c1cc(NC(=O)Nc2ccc(OCCN3CCOCC3)c3ccccc23)n(-c2ccccc2)n1 |  | 62.8 | 3.4 | 6
Cc1ccc(-n2nc(C(C)(C)C)cc2NC(=O)Nc2ccccc2)cc1 | 5 | 177 | 16.8 | 21
Cc1ccc(-n2nc(C(C)(C)C)cc2NC(=O)Nc2cccc3ccccc23)cc1 |  | 118 | 10.6 | 1

Now from value to compound:

Kd [1] [nM] | Kd [2] [nM] | Kd [3] [nM] | Kd [4] [nM] | Structure (SMILES)
1180 | 6070 | 2400 |  | O=C(Nc1ccc(OCCN2CCOCC2)c2ccccc12)Nc1ccnn1-c1ccccc1
 | 5.3 | 0.231 | 0.09 | CC(C)(C)c1cc(NC(=O)Nc2ccc(OCCN3CCOCC3)c3ccccc23)n(-c2ccccc2)n1
20 | 493 | 56.4 | 36 | CC(C)(CO)c1cc(NC(=O)Nc2ccc(OCCN3CCOCC3)c3ccccc23)n(-c2ccccc2)n1
